This note sets out measurements from patent publication US20060270615A1, “Compositions suitable for the treatment of damage caused by ischemia/reper-fusion or oxidative stress” (N.V. NUTRICIA, priority 2000, published 2006).

Values joined by “and” are separate entries in the source; they are usually repeats but may differ in a detail not shown here. Equal entries are not always repeated.

Test [1] in a line: Peroxyl radical scavenging (β-phycoerythrin fluorescence assay, ORACROO). On the set-up: key to TE (Trolox equivalent) (based on mole weight): ratio of net curve area to Trolox's, molar basis. Conditions: relative to Trolox, area under fluorescence curve. Format: biochemical. How it is done: In the β-phycoerythrin fluorescence based assay the reduction of β-phycoerythrin decomposition by radicals resulting from the thermal decomposition of V50 is measured. […]
Peroxyl Radical Scavenging (β-phycoerythrin fluorescence assay)
The principle underlying the present method is that B-phycoerythrin is decomposed by radicals that are the result of the thermolitic decomposition of V50 at 20° C. When a product scavenges these radicals, the decrease in fluorescence in time will occur less quickly. All measurements should be carried out at least in threefold.
AAPH (2,2′-azobis(2-aminopropane)dihydrochloride) (e.g. from Wako Chemicals)=V50; MW=271.19 g/mol; 16 mM in the assay
β-PE (e.g. from Sigma) MW=240,000 g /mol; 16.7 nM in the assay
Trolox (e.g. from Aldrich) MW =250.29 g/mol; in the assay test in the range of 1-10 μM.
Each tray should contain trolox as a reference and as a standard (2 μM or 0.5 mg/l). As a negative control a sample is taken containing only 10 μl ethanol, 50 μl 50 mM PBS, pH=7.4 and 50 μl 66.8 nM β-PE.
The reaction is started by adding 100 μl 32nM V-50. The time between pipetting and mixing of this last step in a well and the measurement of this well, should be constant. Further, the time between the last pipetting step in a well and the first measurement of the well should be less than 2 minutes.
V-50 should be stored in the dark at 4° C. until used. The reaction kinetics of the wells are monitored in a continuous monitoring process. The excitation wavelength is 540 nm, while the emission wavelength is 565 nm. The reaction is monitored until the signal of the sample differs no longer from the background signal (±10%). The area underneath the curve of the negative reference is subtracted from the area underneath the substance to be measured. This difference in area is then related to a difference in area in relation to a negative reference resulting from trolox.

Test [2] deals with T1, xanthine oxidase (grade I from buttermilk) (Bos taurus, UniProt P80457).
T1 construct: XOD (xanthine oxidase) (grade I from buttermilk); from tissue; host or cells: buttermilk
Briefly: Xanthine oxidase inhibition (xanthine oxidase assay), uric acid production. The settings on record: xanthine substrate, pH 7.8, absorbance at 295 nm; for IC50: read-out: IC-50 xanthine oxidase inhibition (converted). The test is classed as biochemical. How it is done: Xanthine Oxidase Inhibition (Xanthine Oxidase Assay)
The activity of xanthine oxidase is determined by means of the uric acid production.
This solution is maintained on ice during the entire experiment to prevent changes in the activity of the enzyme.
724 μl phophate buffer pH=7.8
10 μl DMSO or the substance to be tested dissolved in DMSO
The reaction is started by addition of 66 μl of the enzyme solution to the above described assay mixture. […] If the reaction is linear, the result is expressed as Δ absorbance/min. […] The maximum activity is the activity of the enzyme, when no substance is dissolved in DMSO.

T1 sequence (P80457 whole entry): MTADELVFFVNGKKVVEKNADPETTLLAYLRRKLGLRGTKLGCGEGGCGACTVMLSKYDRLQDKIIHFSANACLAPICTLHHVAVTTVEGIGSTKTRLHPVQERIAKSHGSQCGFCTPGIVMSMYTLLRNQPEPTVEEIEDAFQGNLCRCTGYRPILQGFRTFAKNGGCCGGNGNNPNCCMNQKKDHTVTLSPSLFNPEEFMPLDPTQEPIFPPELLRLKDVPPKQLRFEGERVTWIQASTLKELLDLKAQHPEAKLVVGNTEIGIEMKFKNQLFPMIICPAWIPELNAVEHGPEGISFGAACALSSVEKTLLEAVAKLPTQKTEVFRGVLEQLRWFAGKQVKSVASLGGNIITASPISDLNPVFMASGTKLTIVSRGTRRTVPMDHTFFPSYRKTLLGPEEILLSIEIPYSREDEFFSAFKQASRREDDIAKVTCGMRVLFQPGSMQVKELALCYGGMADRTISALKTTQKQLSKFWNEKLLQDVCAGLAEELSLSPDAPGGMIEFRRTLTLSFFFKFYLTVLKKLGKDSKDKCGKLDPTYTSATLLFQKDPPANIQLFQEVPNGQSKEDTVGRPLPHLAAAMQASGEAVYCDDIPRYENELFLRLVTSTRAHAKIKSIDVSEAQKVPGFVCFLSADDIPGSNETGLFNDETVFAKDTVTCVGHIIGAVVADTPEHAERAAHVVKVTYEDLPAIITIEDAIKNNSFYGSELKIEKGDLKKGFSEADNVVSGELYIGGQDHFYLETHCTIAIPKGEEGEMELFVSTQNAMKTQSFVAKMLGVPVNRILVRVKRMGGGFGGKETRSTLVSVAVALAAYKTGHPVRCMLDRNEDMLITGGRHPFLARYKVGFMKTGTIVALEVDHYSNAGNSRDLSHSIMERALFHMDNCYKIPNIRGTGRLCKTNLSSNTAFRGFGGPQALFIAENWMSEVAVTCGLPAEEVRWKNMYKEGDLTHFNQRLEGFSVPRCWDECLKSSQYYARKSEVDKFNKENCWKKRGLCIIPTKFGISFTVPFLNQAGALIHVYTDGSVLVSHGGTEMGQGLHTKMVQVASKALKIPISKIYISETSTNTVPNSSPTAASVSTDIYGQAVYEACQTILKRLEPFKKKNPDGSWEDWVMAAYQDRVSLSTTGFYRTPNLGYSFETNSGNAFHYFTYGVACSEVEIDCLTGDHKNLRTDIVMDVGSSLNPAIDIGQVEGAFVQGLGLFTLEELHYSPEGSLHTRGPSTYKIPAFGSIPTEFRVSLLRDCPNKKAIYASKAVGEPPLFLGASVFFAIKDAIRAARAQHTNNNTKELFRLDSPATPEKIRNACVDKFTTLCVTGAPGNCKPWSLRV

On to `O=c1cc(-c2ccc(O)cc2)oc2cc(O)cc(O)c12` [Apigenin], for which, in test [1], the “TE (Trolox equivalent) (based on mass)” value was 1.56 and the “TE (Trolox equivalent) (based on mole weight)” value (shortened to “TE … (based on mole weight)”) is recorded as 1.69. The IC50 in test [2] was 999 nM and 1000 nM.
As for `COc1cc(/C=C/C(=O)CC(=O)/C=C/c2ccc(O)c(OC)c2)ccc1O` [Curcumin], the “IC-50 xanthine oxidase inhibition” value in test [2] is reported as “not detectable”.
`Oc1cc(O)c2c(c1)O[C@H](c1ccc(O)c(O)c1)[C@H](O)C2` [Epicatechin]: the “IC-50 xanthine oxidase inhibition” value in test [2] was “not detectable”.
On to `O=c1c(O)c(-c2ccc(O)c(O)c2)oc2cc(O)cc(O)c12` [quercetin], for which, in test [1], the “TE (Trolox equivalent) (based on mass)” value worked out at 1.32 and the “TE … (based on mole weight)” value is given as 1.78.
The corresponding values for `O=C1c2ccc(O)cc2O[C@H](c2ccc(O)c(O)c2)[C@H]1O` [fustin] are 1.07 and 1.24.
`O=C(O[C@@H]1Cc2c(O)cc(O)cc2O[C@@H]1c1cc(O)c(O)c(O)c1)c1cc(O)c(O)c(O)c1` [Epigalo-catechin-galate (ECCG), Epigalo-catechin-galate]: in test [1], the “TE (Trolox equivalent) (based on mass)” value was 0.54 and the “TE … (based on mole weight)” value was 0.99. The “IC-50 xanthine oxidase inhibition” value in test [2] is “not detectable”.
For `O=c1c(O)c(-c2cc(O)c(O)c(O)c2)oc2cc(O)cc(O)c12` [Myricetin], in test [1], the “TE (Trolox equivalent) (based on mass)” value stood at 0.89 and the “TE … (based on mole weight)” value is recorded as 1.13. Besides, the IC50 in test [2] is 1510 nM and 1500 nM.
`O=c1cc(-c2ccccc2)oc2cc(O)cc(O)c12` [Chrysin]: the IC50 in test [2] is 2540 nM and 2500 nM.
Consider `O=c1cc(-c2ccc(O)c(O)c2)oc2cc(O)cc(O)c12` [Luteolin], for which, in test [1], the “TE (Trolox equivalent) (based on mass)” value was determined as 1.22 and the “TE … (based on mole weight)” value was 1.40. Besides, the IC50 in test [2] was 751 nM and 750 nM.
